In publication PMC5995566 (Biochemistry, 2017):
No end group written: not given here.

How the values were obtained:
human S100A5 (hA5) = target: T1, human S100A5 (hA5) (Homo sapiens, UniProt P33763); experiment: ITC of peptide binding to human S100A5; details: 2 mM CaCl2, pH 7.4
T1 sequence (P33763 1-92): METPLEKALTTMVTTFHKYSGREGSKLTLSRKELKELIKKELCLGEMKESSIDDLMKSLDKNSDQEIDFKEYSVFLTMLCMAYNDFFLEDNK

hA5 A83m = experiment: ITC of peptide binding to hA5 A83m mutant; set-up: species or system Homo sapiens; details: single ancestral reversion in hA5
[1] = test system: ancA6 (last common ancestor of S100A6 orthologs); experiment: ITC of peptide binding to reconstructed ancestor ancA6
human S100A6 (hA6) = human S100A6 (hA6) (Homo sapiens, UniProt P06703); experiment: ITC of peptide binding to human S100A6; details: single-site model
S100A6 orthologs = experiment: ITC of peptide binding to S100A6 orthologs; details: 2 mM CaCl2, pH 7.4

SEGLMNVLKKIYEDGDDDMKRTINKAWVESR [SIP] was tested, and the “binding to hA5 (in words)” value (human S100A5 (hA5)) was “did not bind”, the “binding to hA5 A83m (in words)” value (hA5 A83m) was “enabled it to bind” and the “binding to ancA6 (in words)” value [1] was “binding”. The fx comp (human S100A6 (hA6); ITC fit parameter, same buffer) was 1.5 ± 0.1, the “ΔH°” value (human S100A6 (hA6); ITC, 25 mM TES, 100 mM NaCl, 2 mM CaCl2, 1 mM TCEP, pH 7.4, Bayesian fit) was 2.9 ± 0.3 kcal/mol and the “binding to all S100A6 orthologs (in words)” value (S100A6 orthologs) was “bound”.
